Measured values taken from patent US12239650B2, “Compounds for treating and preventing net associated complications” (The Australian National University, priority 2019, dated 2025).

What was measured:
[1] = Rat caecal ligation and puncture (CLP) assay for sepsis; assay type: in vivo; conditions: for Mortality in CLP model of sepsis: rats n=8/group, 50 mg kg^−1 i.p. 5 min pre-CLP and 5, 10, 15 h post-op, 20 h, FIG. 7a; for High ALT and creatinine levels (liver and kidney damage) in CLP rats: 50 mg kg^−1 i.p., versus untreated group, FIG. 7b
Protocol: Rat caecal ligation and puncture (CLP) assay for sepsis. […] Test compounds (50 mg kg^−1) dissolved in saline or an equivalent volume of saline only (Control cohort) were administered i.p. 5 min pre-CLP and 5, 10 and 15 h post-op until cessation of the experiment at 20 h. Sham-CLP rats underwent the same procedure, however, the caecum was not ligated or punctured and these rats received saline at the same times as above. At the conclusion of the experimental time period (20 h) or when morbidity required ethical euthanasia, the rats were anaesthetized and blood was collected via cardiac puncture into EDTA for subsequent analysis of liver (ALT) and kidney (creatinine) function by the Department of Pathology, The Canberra Hospital.

[2] = test system: histone-induced platelet aggregation; experiment: Histone-induced aggregation of isolated platelets; assay type: cell-based, human; conditions: FIG. 4b; for Inhibition of histone-induced platelet aggregation: histones 150 μg/mL, isolated platelets
Protocol: In vitro platelet aggregation and degranulation assays. For aggregation studies platelets were isolated from human whole blood collected into Na-citrate vacutainers through 2-step centrifugation at room temperature (200×g for 20 min then the platelet-rich plasma 800×g for 15 min), the platelet pellet resuspended in Hank's balanced salt solution containing calcium and magnesium and histones added and incubated in the presence/absence of compounds at the concentrations of each as indicated. Samples were assessed for degree of platelet aggregation after 15 min exposure to histones by flow cytometry using the characteristic log FSC versus log SSC identification of platelets, with increases in the geometric mean of log FSC indicative of platelet aggregation.

[3] = test system: anti-proliferative effect of sepsis patients sera on HMEC-1; assay type: cell-based, human; conditions: HMEC-1, test compounds 200 μg ml^−1, FIG. 9d
Protocol: Detection and analysis of cytotoxicity of septic patient sera for endothelial cells. To measure the cytotoxic activity of septic patients sera for endothelial cells in-vitro, HMEC-1 were seeded into 96-well plates at 2.5×10^4 well^−1 in medium and grown at 37° C. in 5% CO2 for 48 h prior to the addition of 50 μl of patient serum in the presence/absence of DNase I (10 μg ml^−1), anti-human histone 3 and histone 4 rabbit pAbs (200 μg ml^−1) (BioVision), or test compounds (200 μg ml^−1) and incubated for 3 h. ^3H-thymidine (0.5 μCi, MP Biomedical) was then added to each culture well in 20 μl of HMEC-1 medium and incubated for a further 24 h. At the conclusion of the incubation period plates were subjected to 3 freeze/thaw cycles (−70° C. for 30 min, then 37±0.5° C. for 30 min) prior to harvesting and measurement of ^3H-thymidine incorporation. […] Filters were dried at 80° C. and placed in Omnifilter plates (Perkin Elmer) then 20 μl of Microscint-O scintillation fluid (Perkin Elmer) was added to each well and the plate sealed with TopSeal-A adhesive film (Perkin Elmer). ^3H-thymidine incorporation was measured using a TopCount NXT™ Microplate Scintillation and Luminescence Counter (Packard Bioscience). Results expressed as a percentage of the proliferation of HMEC-1 not exposed to patient sera.

[4] = Rat ischemia reperfusion tissue (skin) flap model; assay type: in vivo; conditions: rat skin flap IRI, 50 mg kg^−1 i.p., 72 h, FIG. 7d
Excerpt: Rat ischemia reperfusion tissue flap model. The procedure employed is largely based on a previously described method (Bone, R. C. et al. Definitions for sepsis and organ failure and guidelines for the use of innovative therapies in sepsis. The ACCP/SCCM Consensus Conference Committee. American College of Chest Physicians/Society of Critical Care Medicine. Chest 101, 1644-1655 (1992)). Briefly, male Wistar rats were anaesthetized, locally depilated and a 3 cm by 6 cm fasciocutaneous flap was excised leaving the vascular pedicle intact. […] The clamp was removed 10 h post-application permitting returned blood flow to the flap. Test compounds (50 mg kg^−1) or saline were administered i.p. 5 min prior to clamp application and 5 min following its removal. The rats were monitored for a total experimental period of 72 h during which rats received additional compound or saline i.p. at 24 and 48 h post-op. The ‘Control No Clamp’ rats had the tissue flap excised and rubber placed underneath prior to re-suturing, however, the vessel was not clamped and they received saline at the same time points as the other rats. At the end of the experimental period the viability of the flaps was determined by the percentage of black necrotic or reddened areas versus pink viable areas. […]

[5] = test system: histone-mediated cytotoxicity for HMEC-1; experiment: Histone-mediated cytotoxicity assay (PI/Calcein-AM flow cytometry); assay type: cell-based
Protocol: Histone-mediated cytotoxicity assays. To determine the cytotoxicity of calf thymus histones (Sigma-Aldrich), various concentrations of histones (100-800 μg ml^−1) were added to suspensions of HMEC-1 or HUVEC (1×10^6 ml^−1) in 96 well plates and incubated for 1 h at 37° C. Cells were then incubated for 5 min at 37° C. with propidium iodide (PI; 2.5 μg ml^−1) (ThermoFisher Scientific), to detect dead cells, and Calcein-AM (0.04 μM) (ThermoFisher Scientific), to detect viable cells, placed on ice and the percentage of dead and viable cells determined by flow cytometry using gating strategies. In inhibition assays, HMEC-1 were incubated with histones (400 μg ml^−1) for 1 h at 37° C. in the presence of different concentrations of compounds (12.5-400 μg ml^−1) prior to the addition of PI and Calcein-AM. HMEC-1 cytotoxicity at each compound concentration was then determined based on the formula:
[formula] and the IC50 value for each polyanion then determined based on the line of best fit (nonlinear regression analysis) using Prism Software (Graphpad Software). In all assays MTS (IC50 30 μg ml^−1) was included as a standard to compensate for experimental variation, with data being adjusted in each assay to MTS having an IC50 of 30 μg ml^−1.

| Compound | Mortality in CLP model of sepsis [1] | High ALT and creatinine levels (liver and kidney damage) in CLP rats [1] | Inhibition of histone-induced platelet aggregation [2] | Effect on anti-proliferative activity of the 10 most inhibitory septic patient sera [3] | Viable area of the skin flap [4] | Relative activity in inhibiting histone-induced platelet aggregation [2] | Inhibition of histone-mediated cytotoxicity for HMEC-1 (endothelial cells) ([5]; compared with heparin, FIG. 2a) | IC50, inhibition of histone-mediated HMEC-1 cytotoxicity ([5]; histones 400 μg ml^−1, 1 h 37° C., MTS used as standard in all assays) [µg/mL] |
| --- | --- | --- | --- | --- | --- | --- | --- | --- |
| O=S(=O)(O)OC[C@H]1O[C@@H](O[C@H]2[C@H](OS(=O)(=O)O)[C@@H](OS(=O)(=O)O)C(OS(=O)(=O)O)O[C@@H]2COS(=O)(=O)O)[C@H](OS(=O)(=O)O)[C@@H](OS(=O)(=O)O)[C@@H]1OS(=O)(=O)O (stereo partly drawn) [CBS, cellobiose per-O-sulfate] | no mortality | not seen | completely inhibited | significantly overrode |  |  |  |  |
| O=S(=O)(O)OC[C@H]1O[C@H](O[C@H]2[C@H](OS(=O)(=O)O)[C@@H](OS(=O)(=O)O)C(OS(=O)(=O)O)O[C@@H]2COS(=O)(=O)O)[C@H](OS(=O)(=O)O)[C@@H](OS(=O)(=O)O)[C@@H]1O[C@H]1O[C@H](COS(=O)(=O)O)[C@@H](OS(=O)(=O)O)[C@H](OS(=O)(=O)O)[C@H]1OS(=O)(=O)O (stereo partly drawn) [MTS, maltotriose per-O-sulfate] | only one death | only partially reduced | completely inhibited | did not | highly variable | most active | as effective as heparin | 30 |
